Where a name gives a salt, the structure may show the parent alone.
Target: human plasma kallikrein (Homo sapiens, UniProt P03952)
Assay: biochemical
Conditions: purified human plasma kallikrein, substrate S-2302, sodium phosphate buffer pH 7.5

human plasma kallikrein, sequence (P03952 391-638 limits assumed): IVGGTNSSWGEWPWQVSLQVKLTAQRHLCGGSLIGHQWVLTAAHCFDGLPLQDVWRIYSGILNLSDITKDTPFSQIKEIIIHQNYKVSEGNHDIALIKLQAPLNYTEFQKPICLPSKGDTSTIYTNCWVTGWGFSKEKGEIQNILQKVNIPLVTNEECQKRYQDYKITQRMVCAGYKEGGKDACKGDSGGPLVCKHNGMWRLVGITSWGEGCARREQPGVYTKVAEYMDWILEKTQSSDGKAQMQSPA
human plasma kallikrein, sequence (P03952 20-390 partner limits assumed): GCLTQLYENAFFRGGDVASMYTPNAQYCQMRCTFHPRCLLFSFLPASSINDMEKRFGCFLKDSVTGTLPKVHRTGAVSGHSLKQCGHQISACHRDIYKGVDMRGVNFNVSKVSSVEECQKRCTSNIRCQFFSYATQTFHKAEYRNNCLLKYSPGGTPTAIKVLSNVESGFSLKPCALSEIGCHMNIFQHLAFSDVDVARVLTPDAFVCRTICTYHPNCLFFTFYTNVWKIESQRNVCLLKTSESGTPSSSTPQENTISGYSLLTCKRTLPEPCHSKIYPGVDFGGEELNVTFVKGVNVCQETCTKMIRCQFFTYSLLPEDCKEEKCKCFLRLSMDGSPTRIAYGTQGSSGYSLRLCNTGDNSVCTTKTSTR

Structure (SMILES)	Ki [nM]
C[C@@H]1CC(O)C[C@H](n2cnc(-c3c(-n4cc(Cl)nn4)ccc(Cl)c3F)cc2=O)c2cc(ccn2)-c2cc(F)ccc2NC1=O (stereo partly drawn) [Example 40, (10R,14S)-14-{4-[3-chloro-6-(4-chloro-1H-1,2,3-triazol-1-yl)-2-fluorophenyl]-6-oxo-1,6-dihydropyrimidin-1-yl}-4-fluoro-12-hydroxy-10-methyl-8,16-diazatricyclo[13.3.1.0^2,7]nonadeca-1(19),2(7),3,5,15,17-hexaen-9-one trifluoroacetate]	13
COC(=O)Nc1ccc2c(c1)NC(=O)[C@H](C)CCC[C@H](n1cnc(-c3cccc(Cl)c3F)cc1=O)c1cc-2ccn1 [Example 45, methyl N-[(10R,14S)-14-[4-(3-chloro-2-fluorophenyl)-6-oxo-1,6-dihydropyrimidin-1-yl]-10-methyl-9-oxo-8,16-diazatricyclo[13.3.1.0^2,7]nonadeca-1(18),2,4,6,15(19),16-hexaen-5-yl]carbamate trifluoroacetate]	78
C[C@@H]1CCC[C@H](n2cnc(-c3c(-n4cc(Cl)nn4)ccc(Cl)c3F)cc2=O)c2cc(ccn2)-c2ccccc2NC1=O [Example 58, (10R,14S)-14-{4-[3-chloro-6-(4-chloro-1H-1,2,3-triazol-1-yl)-2-fluorophenyl]-6-oxo-1,6-dihydropyrimidin-1-yl}-10-methyl-8,16-diazatricyclo [13.3.1.0^2,7]nonadeca-1(19),2,4,6,15,17-hexaen-9-one]	5
C[C@@H]1CCC[C@H](n2cnc(-c3cc(Cl)ccc3-n3cc(Cl)nn3)cc2=O)c2cc(ccn2)-c2ccc(C(F)F)cc2NC1=O [Example 74, (10R,14S)-14-{4-[5-chloro-2-(4-chloro-1H-1,2,3-triazol-1-yl)phenyl]-6-oxo-1,6-dihydropyrimidin-1-yl}-5-(difluoromethyl)-10-methyl-8,16-diazatricyclo [13.3.1.0^2,7]nonadeca-1(19),2(7),3,5,15,17-hexaen-9-one]	40
C[C@@H]1CCC[C@H](n2cnc(-c3cc(Cl)ccc3-n3cc(Cl)nn3)cc2=O)c2cc(ccn2)-c2ccc(Cl)cc2NC1=O [Example 75, (10R,14S)-5-chloro-14-{4-[5-chloro-2-(4-chloro-1H-1,2,3-triazol-1-yl)phenyl]-6-oxo-1,6-dihydropyrimidin-1-yl}-10-methyl-8,16-diazatricyclo [13.3.1.0^2,7]nonadeca-1(19),2(7),3,5,15,17-hexaen-9-one]	100
C[C@@H]1CCC[C@H](n2cnc(-c3cc(Cl)ccc3-n3cc(C(F)F)nn3)cc2=O)c2cc(ccn2)-c2ccccc2NC1=O [Example 94, (10R,14S)-14-(4-{5-chloro-2-[4-(difluoromethyl)-1H-1,2,3-triazol-1-yl]phenyl}-6-oxo-1,6-dihydropyrimidin-1-yl)-10-methyl-8,16-diazatricyclo[13.3.1.0^2,7]nonadeca-1(19),2(7),3,5,15,17-hexaen-9-one]	30
C[C@@H]1CCC[C@H](n2cnc(-c3c(-n4cc(Cl)nn4)ccc(Cl)c3F)cc2=O)c2cc(ccn2)-c2cc(C#N)ccc2NC1=O [Example 98, (10R,14S)-14-{4-[3-Chloro-6-(4-chloro-1H-1,2,3-triazol-1-yl)-2-fluorophenyl]-6-oxo-1,6-dihydropyrimidin-1-yl}-10-methyl-9-oxo-8,16-diazatricyclo[13.3.1.0^2,7]nonadeca-1(19),2(7),3,5,15,17-hexaene-4-carbonitrile trifluoroacetate]	40
C[C@@H]1CCC[C@H](n2cnc(-c3cc(Cl)ccc3-n3cc(Cl)nn3)cc2=O)c2cc(ccn2)-c2c(Cl)cccc2NC1=O [Example 104, (10R,14S)-3-chloro-14-{4-[5-chloro-2-(4-chloro-1H-1,2,3-triazol-1-yl)phenyl]-6-oxo-1,6-dihydropyrimidin-1-yl}-10-methyl-8,16-diazatricyclo [13.3.1.0^2,7]nonadeca-1(19),2(7),3,5,15,17-hexaen-9-one]	190
C[C@@H]1CCC[C@H](n2cnc(-c3cc(Cl)ccc3-n3cc(Cl)nn3)cc2=O)c2cc(ccn2)-c2cc(C#N)ccc2NC1=O [Example 114, (10R,14S)-14-{4-[5-chloro-2-(4-chloro-1H-1,2,3-triazol-1-yl)phenyl]-6-oxo-1,6-dihydropyrimidin-1-yl}-10-methyl-9-oxo-8,16-diazatricyclo[13.3.1.0^2,7]nonadeca-1(19),2(7),3,5,15,17-hexaene-4-carbonitrile trifluoroacetate]	26
COC(=O)Nc1ccc2c(c1)NC(=O)[C@H](C)CCC[C@H](n1cnc(-c3cc(Cl)cc4cnn(C)c34)cc1=O)c1cc-2ccn1 [Example 120, N-[(10R,14S)-14-[4-(5-chloro-1-methyl-1H-indazol-7-yl)-6-oxo-1,6-1-yl]-10-methyl-9-oxo-8,16-diazatricyclo[13.3.1.0^2,7]nonadeca-1(19),2(7),3,5,15,17-hexaen-5-yl]carbamate]	180
C[C@@H]1CCC[C@H](n2cnc(-c3cc(Cl)ccc3-c3cnn(C(F)F)c3)cc2=O)c2cc(ccn2)-c2cc(F)ccc2NC1=O [Example 124, (10R,14S)-14-(4-{5-chloro-2-[1-(difluoromethyl)-1H-pyrazol-4-yl]phenyl}-6-oxo-1,6-dihydropyrimidin-1-yl)-4-fluoro-10-methyl-8,16-diazatricyclo [13.3.1.0^2,7]nonadeca-1(19),2(7),3,5,15,17-hexaen-9-one trifluoroacetate]	780
COC(=O)Nc1ccc2c(c1)CCCCCC[C@H](n1cnc(-c3cc(Cl)ccc3-n3cc(Cl)nn3)cc1=O)c1nc-2c[nH]1 [Example 131, methyl N-[(14S)-14-{4-[5-chloro-2-(4-chloro-1H-1,2,3-triazol-1-)phenyl]-6-oxo-1,6-dihydropyrimidin-1-yl}-16,18-diazatricyclo[13.2.1.0^2,7]octadeca-1(17),2,4,6,15 (18)-pentaen-5-yl]carb amate trifluoroacetate]	2200

More lines, in order of falling Ki, values ahead:

Ki [nM]	Structure (SMILES)
4900	C[C@@H]1CCC[C@H](n2cnc(-c3cc(Cl)ccc3-n3cc(Cl)nn3)cc2=O)c2cc(ccn2)-c2ccc(OCC(=O)O)cc2NC1=O [Example 99, 2-{[(10R,14S)-14-{4-[5-chloro-2-(4-chloro-1H-1,2,3-triazol-1-yl)phenyl]-6-oxo-1,6-dihydropyrimidin-1-yl}-10-methyl-9-oxo-8,16-diazatricyclo[13.3.1.0^2,7]nonadeca-1(19),2(7),3,5,15,17-hexaen-5-yl]oxy}acetic acid]
900	C[C@@H]1CCC[C@H](n2cnc(-c3cc(Cl)ccc3-c3cnn(C)c3)cc2=O)c2cc(ccn2)-c2cc(F)ccc2NC1=O [Example 66, (10R,14S)-14-{4-[5-chloro-2-(1-methyl-1H-pyrazol-4-yl)phenyl]-6-oxo-1,6-dihydropyrimidin-1-yl}-4-fluoro-10-methyl-8,16-diazatricyclo[13.3.1.0^2,7]nonadeca-1(19),2(7),3,5,15,17-hexaen-9-one]
660	C#Cc1ccc2c(c1)NC(=O)[C@H](C)CCC[C@H](n1cnc(-c3cc(Cl)ccc3-n3cc(Cl)nn3)cc1=O)c1cc-2ccn1 [Example 91, (10R,14S)-14-{4-[5-chloro-2-(4-chloro-1H-1,2,3-triazol-1-yl)phenyl]-6-oxo-1,6-dihydropyrimidin-1-yl}-5-ethynyl-10-methyl-8,16-diazatricyclo[13.3.1.0^2,7]nonadeca-1(19),2(7),3,5,15,17-hexaen-9-one]
41	C[C@@H]1CCC[C@H](n2cnc(-c3c(-n4ccnn4)ccc(Cl)c3F)cc2=O)c2cc(ccn2)-c2c(ccc(F)c2F)NC1=O [Example 54, (10R,14S)-14-{4-[3-chloro-2-fluoro-6-(1H-1,2,3-triazol-1-yl)phenyl]-6-oxo-1,6-dihydropyrimidin-1-yl}-3,4-difluoro-10-methyl-8,16-diazatricyclo[13.3.1.0^2,7]nonadeca-1(19),2(7),3,5,15,17-hexaen-9-one trifluoroacetate]
32	C[C@@H]1CCC[C@H](n2cnc(-c3cc(Cl)ccc3-n3cc(C(F)(F)F)nn3)cc2=O)c2cncc(c2)-c2cc(F)ccc2NC1=O [Example 103, (10R,14S)-14-(4-{5-chloro-2-[4-(trifluoromethyl)-1H-1,2,3-triazol-1-yl]phenyl}-6-oxo-1,6-dihydropyrimidin-1-yl)-4-fluoro-10-methyl-8,17-diazatricyclo[13.3.1.0^2,7]nonadeca-1(19),2(7),3,5,15,17-hexaen-9-one]
19	C[C@@H]1CCC[C@H](n2cnc(-c3cc(Cl)ccc3-n3cc(C#N)nn3)cc2=O)c2cc(ccn2)-c2ccc(C#N)cc2NC1=O [Example 38, (10R,14S)-14-{4-[5-Chloro-2-(4-cyano-1H-1,2,3-triazol-1-yl)phenyl]-6-oxo-1,6-dihydropyrimidin-1-yl}-10-methyl-9-oxo-8,16-diazatricyclo[13.3.1.0^2,7]nonadeca-1(19),2(7),3,5,15,17-hexaene-5-carbonitrile trifluoroacetate]
15	C[C@@H]1CCC[C@H](n2cnc(-c3cc(Cl)ccc3-n3cc(C(F)(F)F)nn3)cc2=O)c2ccnc(c2)-c2ccc(C#N)cc2NC1=O [Example 113, (10R,14S)-14-(4-{5-chloro-2-[4-(trifluoromethyl)-1H-1,2,3-triazol-1-yl]phenyl}-6-oxo-1,6-dihydropyrimidin-1-yl)-10-methyl-9-oxo-8,18-diazatricyclo [13.3.1.0^2,7]nonadeca-1(19),2(7),3,5,15,17-hexaene-5-carbonitrile]
13	COC(=O)Nc1ccc2c(c1)NC(=O)[C@H](C)CCC[C@H](n1cnc(-c3cc(Cl)ccc3F)cc1=O)c1cc-2ccn1 [Example 49, methyl N-[(10R,14S)-14-[4-(5-chloro-2-fluorophenyl)-6-oxo-1,6-dihydropyrimidin-1-yl]-10-methyl-9-oxo-8,16-diazatricyclo[13.3.1.0^2,7]nonadeca-1(19),2(7),3,5,15,17-hexaen-5-yl]carbamate trifluoroacetate]
8	C[C@@H]1CCC[C@H](n2cnc(-c3cc(Cl)ccc3-n3cc(Cl)nn3)cc2=O)c2cc(ccn2)-c2ccc(C#N)cc2NC1=O [Example 89, (10R,14S)-14-{4-[5-chloro-2-(4-chloro-1H-1,2,3-triazol-1-yl)phenyl]-6-oxo-1,6-dihydropyrimidin-1-yl}-10-methyl-9-oxo-8,16-diazatricyclo[13.3.1.0^2,7]nonadeca-1(19),2(7),3,5,15,17-hexaene-5-carbonitrile trifluoroacetate]
